In PubChem BioAssay (NCI):
Where “and” joins values, the source holds several entries; their conditions need not be identical. Equal values may be shown once.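 Protocol summary: plate cells (96-well), add compound at 5 concentrations, incubate 48 h, interpolate endpoints linearly. GI50: concentration for 50% inhibition of growth. TGI denotes the concentration required for complete inhibition of growth.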

Columns and labels:
Test in all cases: DTP human tumour cell line panel, 48 h
[1] = system: LOX IMVI melanoma
[2] = system: A549 NSCLC
[3] = system: SNB-19 CNS
[4] = system: NCI-H522 lung
[5] = system: K-562 leukemia
[6] = system: OVCAR-4 ovarian
[7] = system: MOLT-4 leukemia
[8] = system: SF-295 CNS
[9] = system: T-47D breast
[10] = system: SNB-75 CNS

`COc1ccc2c([nH]c3cc(O)c(C)cc32)c1C=O` was tested, and the TGI [1] was over 25 µM, the TGI [2] was over 25 µM and the TGI [3] was over 25 µM. The TGI [4] was over 25 µM, the TGI [5] was over 25 µM and the TGI [6] was over 25 µM. It also gave a TGI [7] of over 25 µM.
With `O=C(Nc1ccc(-n2cc(-c3ccncc3)c(-c3ccc(Cl)c(O)c3)n2)cc1)Nc1cc(C(F)(F)F)cc(C(F)(F)F)c1` the GI50 [1] was 1.63 µM, the TGI [1] was 3.02 µM and the GI50 [2] was 1.93 µM. The TGI [2] was 4.3 µM, the GI50 [8] was 1.47 µM and the TGI [8] was 3.08 µM. It also gave a GI50 [3] of 3.01 µM, a TGI [3] of 9.97 µM and a GI50 [9] of 1.85 µM. It also gave a TGI [9] of 8 µM, a GI50 [10] of 1.18 µM and a TGI [10] of 3.88 µM. For the same compound, the GI50 [6] was 0.404 µM, the TGI [6] was 3.98 µM and the GI50 [7] was 1.95 µM. The TGI [7] was 7.37 µM.
With `CC(=O)NC1=C(Nc2ccc(C)cc2)C(=O)c2ccccc2C1=O` the TGI [1] was 21.3 µM, the TGI [2] was 29.3 µM and the TGI [8] was 54.7 µM. It also gave a TGI [3] of over 75 µM, a TGI [10] of 22.6 µM and a TGI [5] of over 75 µM. The TGI [6] was 46.8 µM and the TGI [7] was 56.5 µM.
With `O=C1CCCCCCCCCCC(=O)C2CCOCCOCCOCCC1Cc1cccc(n1)C2` the TGI [1] was over 100 µM, the TGI [2] was over 100 µM and the TGI [8] was over 100 µM. It also gave a TGI [3] of over 100 µM, a TGI [10] of over 100 µM and a TGI [4] of over 100 µM. For the same compound, the TGI [5] was over 100 µM, the TGI [6] was over 100 µM and the TGI [7] was over 100 µM.
`CN(NC(=O)CC(=O)NN(C)C(=S)c1ccccc1)C(=S)c1ccccc1` showed a TGI [1] of over 100 µM, a GI50 [2] of 16.7 µM and a TGI [2] of over 100 µM. For the same compound, the TGI [8] was over 100 µM, the TGI [3] was over 100 µM and the GI50 [10] was over 54.6 µM. The TGI [10] was over 100 µM, the GI50 [4] was 69.9 µM and the TGI [4] was over 100 µM. It also gave a GI50 [5] of 40800 nM, a TGI [5] of over 100 µM and a GI50 [6] of over 71.2 µM. It also gave a TGI [6] of over 100 µM.
`CCCCCCCCCCC(C)CCCCCCC(=O)OCC(COP(=O)([O-])OCC[N+](C)(C)C)OC(=O)CCCCCCC(C)CCCCCCCCCC` (stereo not given) was tested, and the TGI [1] was over 100 µM, the TGI [2] was over 100 µM and the TGI [8] was over 100 µM. The TGI [3] was over 100 µM, the TGI [10] was over 100 µM and the TGI [4] was over 100 µM. It also gave a TGI [5] of over 100 µM, a TGI [6] of over 100 µM and a TGI [7] of over 100 µM.
`COc1cc2c(c(OC)c1OC)-c1ccc(SC)c(=O)cc1[C@@H](NC(=O)c1ccc(OC(C)=O)cc1)CC2` was tested, and the TGI [1] was 0.0539 µM, the TGI [2] was over 100 µM and the GI50 [3] was 0.0214 µM. It also gave a TGI [5] of 6.03 µM, a GI50 [6] of 10.6 µM and a TGI [6] of 23.1 µM. For the same compound, the TGI [7] was over 100 µM.
With `C1CNCCNCCNCCN1` the TGI [1] was over 100 µM, the TGI [2] was over 100 µM and the TGI [8] was over 100 µM. It also gave a TGI [3] of over 100 µM, a TGI [10] of over 100 µM and a TGI [4] of over 100 µM. It also gave a TGI [5] of over 100 µM and a TGI [7] of over 100 µM.
`Clc1ccc(-n2nnc(C3=NCCCN3)c2-c2ccccc2)cc1` showed a TGI [1] of over 100 µM, a TGI [2] of over 100 µM and a TGI [8] of over 100 µM. The TGI [3] was over 100 µM, the TGI [10] was over 100 µM and the TGI [4] was over 100 µM. It also gave a TGI [5] of over 100 µM, a TGI [6] of over 100 µM and a TGI [7] of over 100 µM.
Work on `CC1(C)COCN1COC1CCCCC1` yielded a TGI [2] of over 100 µM, a TGI [8] of over 100 µM and a TGI [3] of over 100 µM. The TGI [9] was over 100 µM, the TGI [10] was over 100 µM and the TGI [4] was over 100 µM. It also gave a TGI [5] of over 100 µM, a TGI [6] of over 100 µM and a TGI [7] of 83.9 µM.
With `C=CC[C@H]1C[C@@]2(C)OC[C@H](C(C)C)N2C1=O` the TGI [1] was over 100 µM, the TGI [2] was over 100 µM and the TGI [8] was over 100 µM. The TGI [3] was over 100 µM, the TGI [10] was over 100 µM and the TGI [5] was over 100 µM. For the same compound, the TGI [6] was over 100 µM.
In the case of `Nc1ccc(C(=O)c2ccc(N)c(Br)c2)cc1Br`, the GI50 [1] is reported as 0.848 µM, the TGI [1] is reported as over 65.7 µM and the GI50 [2] is reported as 0.494 µM. For the same compound, the TGI [2] was 31.3 µM, the GI50 [8] was 0.228 µM and the TGI [8] was 0.664 µM. It also gave a GI50 [3] of 0.637 µM, a TGI [3] of over 100 µM and a GI50 [10] of 0.291 µM. The TGI [10] was 13.4 µM, the GI50 [4] was 0.256 µM and the TGI [4] was 0.623 µM. The GI50 [5] was 271 nM, the TGI [5] was 22.2 µM and the GI50 [6] was 6.24 µM. For the same compound, the TGI [6] was over 100 µM, the GI50 [7] was 0.654 µM and the TGI [7] was 59.4 µM.
For `C=C1C(=O)O[C@@H]2C1C[C@@H](O)/C(C)=C/C/C=C(\C)CCC[C@H](C)[C@H]2OC(C)=O` (stereo not given in full), the GI50 [1] was 21.9 µM, the TGI [1] was 47.2 µM and the GI50 [2] was 35.8 µM. For the same compound, the TGI [2] was over 100 µM, the GI50 [8] was over 100 µM and the TGI [8] was over 100 µM. The GI50 [3] was 61 µM, the TGI [3] was over 100 µM and the GI50 [9] was 48.4 µM. The TGI [9] was over 100 µM, the GI50 [10] was 38.6 µM and the TGI [10] was over 100 µM. The GI50 [4] was 22.7 µM, the TGI [4] was 79.9 µM and the GI50 [6] was 42.8 µM. For the same compound, the TGI [6] was over 100 µM.
`c1nc2cscc2c2cscc12` showed a TGI [1] of over 100 µM, a TGI [2] of over 100 µM and a TGI [8] of over 100 µM. For the same compound, the TGI [3] was over 100 µM, the TGI [4] was over 100 µM and the TGI [5] was over 100 µM. It also gave a TGI [6] of over 100 µM and a TGI [7] of over 100 µM.
`O=C(/C=C/C=C/c1ccccc1)CCc1ccccc1` gave a TGI [1] of over 100 µM, a TGI [2] of over 100 µM and a TGI [8] of over 100 µM. The TGI [3] was over 100 µM, the TGI [9] was over 100 µM and the TGI [10] was over 100 µM. For the same compound, the TGI [4] was over 100 µM, the TGI [6] was over 100 µM and the TGI [7] was 56.1 µM.
`S=c1[nH]c(=S)c2sc(=S)n(-c3ccccc3)c2[nH]1` gave a TGI [1] of over 100 µM, a TGI [2] of over 100 µM and a TGI [8] of over 100 µM. The TGI [3] was over 100 µM, the TGI [10] was over 100 µM and the TGI [4] was over 100 µM. For the same compound, the TGI [5] was over 100 µM, the TGI [6] was over 100 µM and the TGI [7] was over 100 µM.
For `COc1ccc(/C=C\c2cc(OC)c(OC)c(OC)c2)cc1OC(=O)C(N)CCC(=O)O` (stereo not given), the GI50 [1] was 0.000605 µM and 0.000284 µM and < 0.0001 µM, the TGI [1] was over 33.9 µM and the GI50 [2] was 0.00398 µM and 0.0108 µM. For the same compound, the TGI [2] was 28.4 µM and > 100 µM, the GI50 [3] was 0.000828 µM and 0.000281 µM and < 0.0001 µM and the TGI [3] was over 100 µM. The GI50 [9] was over 100 µM, the TGI [9] was over 100 µM and the GI50 [4] was 0.00114 µM and 0.000248 µM. For the same compound, the GI50 [5] was 0.311 nM and 0.0702 nM, the TGI [6] was over 100 µM and the GI50 [7] was 0.00244 µM.
In the case of `CC(=O)[CH-]C(=O)c1ccccc1.CC(=O)[CH-]C(=O)c1ccccc1.CC(=O)[CH-]C(=O)c1ccccc1.[Tl+3]`, the GI50 [1] is reported as 42.7 µM, the TGI [1] is reported as over 100 µM and the GI50 [2] is reported as 42.1 µM. It also gave a TGI [2] of over 100 µM, a GI50 [8] of 48.7 µM and a TGI [8] of over 100 µM. It also gave a GI50 [3] of 95.2 µM, a TGI [3] of over 100 µM and a GI50 [10] of 48.1 µM. For the same compound, the TGI [10] was over 100 µM, the GI50 [4] was over 54.7 µM and the TGI [4] was over 100 µM. It also gave a GI50 [5] of 2320 nM, a TGI [5] of over 100 µM and a GI50 [6] of 26.1 µM. For the same compound, the TGI [6] was over 100 µM, the GI50 [7] was 18.8 µM and the TGI [7] was over 69.4 µM.
For `Cc1nc2c(=O)[nH]c(=O)n(C)c2[nH]c1=O`, the TGI [1] was over 100 µM, the TGI [2] was over 100 µM and the TGI [3] was over 100 µM. It also gave a TGI [10] of over 100 µM, a TGI [4] of over 100 µM and a TGI [5] of over 100 µM. It also gave a TGI [6] of over 100 µM and a TGI [7] of over 100 µM.
